The values that follow come from article PMC12464334, “Reprogramming of cancer metabolism via photoresponsive nano-PROTAC enhances pyroptosis-mediated immunotherapy” (Signal Transduction and Targeted Therapy, 2025).

Like-named read-outs stand apart in the source and are kept apart here.

Series [1] is described as follows: ROS generation, DPBF bleaching assay under 671 nm laser. It counts as physicochemical. The following applies: 671 nm laser 40 mW, calculated relative to VPF, n = 5. As for the experimental part:
The morphology in distilled water was observed via transmission electron microscopy (TEM; Philips). UV‒vis and fluorescence spectra were measured via a UV‒vis spectrometer (Agilent Technologies) and a fluorescence spectrometer (Hitachi), respectively. ROS generation was quantified via a bleaching assay using 1,3-diphenylisobenzofuran (DPBF; Cat. No. 105481; Sigma Aldrich).
(§1) AVPF and ANanoTAC represent the absorbance at the excitation wavelength (671 nm), whereas SVPF and SNanoTAC denote the slopes of the absorbance intensity over time. […] The resulting data were plotted, and kcat/KM was determined via Prism 10 software (GraphPad).

The test system of another series is rechallenged 4T1 TNBC. As to conditions: day 15 after tumor rechallenge, ELISA, n = 3. Here is the method:
Sixteen days post-treatment, TNBC mice were inoculated with 4T1 cells (2 × 10^5 cells per mouse) into the fourth mammary fat pad opposite the primary TNBC site. Rechallenged tumor volumes were measured every 2 days. Fifteen days after tumor rechallenge, the population of splenic Tem cells (CD3^+; CD8^+; CD44^+ [Cat. No. 103016, Biolegend]; CD62L^low [Cat. No. 104407, Biolegend]) was analyzed via flow cytometry. Finally, the serum levels of IFN-γ, IL-6, and TNF-α were quantified via ELISA.
(ELISA stands for enzyme-linked immunosorbent assay.)

Series [2] deals with orthotopic 4T1 TNBC tumor. Description: Tumor inhibition in orthotopic TNBC mouse model. It counts as in vivo. The following applies: for complete regression (CR), mice with CR / mice in group: i.v. equivalent 5 mg/kg VPF, n = 5. Here is the method: BL imaging was conducted every 4 days following the intraperitoneal injection of D-luciferin. The tumor volumes and body weights were measured every 2 days. Mice with tumor volumes exceeding 500 mm^3 were considered deceased.

Another series has as its target T1, Cat-D (Homo sapiens, UniProt P07339).
T1 construct: purchased R&D Systems 1014-AS
Description: Enzymatic cleavage by Cat-D. The format is biochemical. The following applies: pH 5.5 MES buffer, 37 °C, LC/MS. As for the experimental part: (§2) AVPF and ANanoTAC represent the absorbance at the excitation wavelength (671 nm), whereas SVPF and SNanoTAC denote the slopes of the absorbance intensity over time. […] The cleavage rate of each sample was calculated by comparing the peak area to that of an equivalent amount of NanoTAC prior to enzyme incubation. The resulting data were plotted, and kcat/KM was determined via Prism 10 software (GraphPad).

Another series has as its target T2, caspase-3 (CASP3) (Homo sapiens, UniProt P42574).
T2 construct: purchased R&D Systems 707-C3/CF
T2 sequence (P42574 29-175 limits assumed): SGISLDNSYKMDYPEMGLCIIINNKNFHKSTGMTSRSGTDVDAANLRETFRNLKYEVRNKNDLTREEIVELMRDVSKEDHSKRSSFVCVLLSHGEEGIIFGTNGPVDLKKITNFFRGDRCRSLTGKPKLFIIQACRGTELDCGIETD
T2 sequence (P42574 176-277 limits assumed): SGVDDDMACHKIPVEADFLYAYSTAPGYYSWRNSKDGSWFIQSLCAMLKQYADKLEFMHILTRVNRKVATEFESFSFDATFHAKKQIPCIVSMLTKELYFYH
Nature of the series: Enzymatic cleavage by caspase-3. The following applies: pH 5.5 MES buffer, 37 °C, LC/MS. The format is biochemical. As for the experimental part:
as §2

In a further series the target is T3, Cat-L (Homo sapiens, UniProt P07711).
T3 construct: purchased R&D Systems 952-CY
Nature of the series: Enzymatic cleavage by Cat-L. The format is biochemical. The following applies: pH 5.5 MES buffer, 37 °C, LC/MS. Here is the method:
as §2

The subject of series [3] is 4T1 cells. The following applies: without photoirradiation, absence (migration) or presence (invasion) of collagen, n = 5.
The next series has as its target T4, Cat-B (Homo sapiens, UniProt P07858).
T4 construct: purchased R&D systems 953CY
Description: Enzymatic cleavage by Cat-B (LC/MS, HPLC). The format is biochemical. The following applies: pH 5.5 MES buffer, 37 °C. As for the experimental part:
as §1

The target in another series is T5, HK2 (Mus musculus, UniProt O08528).
T5 construct: endogenous in cells; host or cells: 4T1 cells
T5 sequence (O08528 1-917): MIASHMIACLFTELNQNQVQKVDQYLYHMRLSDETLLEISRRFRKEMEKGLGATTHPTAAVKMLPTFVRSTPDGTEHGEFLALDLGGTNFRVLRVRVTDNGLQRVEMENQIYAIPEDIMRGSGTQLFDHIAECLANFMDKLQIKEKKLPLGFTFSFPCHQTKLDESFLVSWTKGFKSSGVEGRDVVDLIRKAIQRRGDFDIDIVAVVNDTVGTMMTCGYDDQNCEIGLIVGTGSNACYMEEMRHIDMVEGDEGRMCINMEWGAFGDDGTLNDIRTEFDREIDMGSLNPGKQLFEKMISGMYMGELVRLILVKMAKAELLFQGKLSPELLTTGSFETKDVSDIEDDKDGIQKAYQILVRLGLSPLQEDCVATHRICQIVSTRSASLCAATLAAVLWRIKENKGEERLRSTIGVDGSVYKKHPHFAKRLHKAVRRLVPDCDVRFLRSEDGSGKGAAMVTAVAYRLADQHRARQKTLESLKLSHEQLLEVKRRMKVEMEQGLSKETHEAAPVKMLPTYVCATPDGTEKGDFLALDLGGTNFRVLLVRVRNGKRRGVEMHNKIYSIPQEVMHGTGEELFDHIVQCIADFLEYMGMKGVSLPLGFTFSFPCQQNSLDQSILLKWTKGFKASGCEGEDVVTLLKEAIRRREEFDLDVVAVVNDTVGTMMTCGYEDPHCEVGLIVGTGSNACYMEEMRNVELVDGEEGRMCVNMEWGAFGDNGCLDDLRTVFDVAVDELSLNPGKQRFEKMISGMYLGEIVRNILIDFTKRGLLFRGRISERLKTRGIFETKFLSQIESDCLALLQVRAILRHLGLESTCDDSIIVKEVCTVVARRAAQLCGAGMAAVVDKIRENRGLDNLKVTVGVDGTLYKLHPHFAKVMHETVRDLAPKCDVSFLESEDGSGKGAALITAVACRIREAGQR
Nature of the series: TPD analysis: intracellular HK2 level. The format is cell-based, murine. As to conditions: for time-dependent HK2 expression after washout: TNBC cells, 1 µM, 12 h treatment then washout, n = 3.

Series [4] relates to orthotopic 4T1 TNBC tumor. The following applies: tumors on day 3, flow cytometry, n = 5. As for the experimental part: Following treatment of the TNBC mouse model described above, tumor tissues were collected on day 3 for immune cell population analyses. Single cells were isolated from the tumor samples via a tumor dissociation kit (Cat. No. 130-096-730; Miltenyi Biotechnology). An equal number of cells were incubated with FcBlock (Cat. No. 553142, BD Biosciences) for 5 min to prevent nonspecific IgG binding and then stained with appropriate antibodies to identify the populations of CRT-positive tumor cells (CD45^−CRT^+), mature DCs, CTLs, and regulatory T cells. As in the coculture study, HMGB1 and HSP70 in the tumor supernatants were assessed by western blot, while IL-18, IL-1β, TNF-α, IFN-γ, and IL-10 were measured via ELISA kits.
A general note: In flow cytometry, cells or beads pass a laser one at a time.

A further series deals with T6, Cat-E (Homo sapiens, UniProt P14091).
T6 construct: purchased R&D Systems 1294-AS
T6 sequence (P14091 54-396): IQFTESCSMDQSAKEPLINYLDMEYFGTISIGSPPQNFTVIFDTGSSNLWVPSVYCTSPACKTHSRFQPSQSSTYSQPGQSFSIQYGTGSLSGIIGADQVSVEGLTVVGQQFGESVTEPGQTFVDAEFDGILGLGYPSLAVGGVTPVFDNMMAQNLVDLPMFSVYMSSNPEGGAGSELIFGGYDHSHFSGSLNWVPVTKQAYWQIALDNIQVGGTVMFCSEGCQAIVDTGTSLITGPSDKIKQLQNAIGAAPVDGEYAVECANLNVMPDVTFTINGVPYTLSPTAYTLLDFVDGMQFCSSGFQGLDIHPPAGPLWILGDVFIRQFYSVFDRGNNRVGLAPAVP
Nature of the series: Enzymatic cleavage by Cat-E. As to conditions: pH 5.5 MES buffer, 37 °C, LC/MS. The format is biochemical. Here is the method:
as §2

The target of series [5] is T7, matrix metalloproteinase-9 (MMP-9) (Homo sapiens, UniProt P14780).
T7 construct: purchased R&D Systems 911-MP
Description: Enzymatic cleavage by MMP-9. It counts as biochemical. As to conditions: pH 5.5 MES buffer, 37 °C, LC/MS. Here is the method:
as §2

Series [6] deals with 4T1 cells. Nature of the series: Intracellular ROS generation (DCFH-DA). As to conditions: 1 μM, 12 h, +L (40 mW, 500 s), hypoxia 1% O2, DCFH-DA. The format is cell-based, murine. Here is the method: Diacetyldichlorofluorescein (DCFH-DA; Cat. No. 4091-99-0, Sigma Aldrich) was used to detect intracellular ROS. […] The cells were then incubated with DCFH-DA for 30 min and subsequently exposed to photoirradiation for 500 s at a power of 40 mW. NIRF images were captured via CLSM.

Details of series [7]: method as in doi:10.1016/j.dyepig.2020.108598. As to conditions: reference value used for calculation; cited from earlier work.

T7 sequence (P14780 94-707): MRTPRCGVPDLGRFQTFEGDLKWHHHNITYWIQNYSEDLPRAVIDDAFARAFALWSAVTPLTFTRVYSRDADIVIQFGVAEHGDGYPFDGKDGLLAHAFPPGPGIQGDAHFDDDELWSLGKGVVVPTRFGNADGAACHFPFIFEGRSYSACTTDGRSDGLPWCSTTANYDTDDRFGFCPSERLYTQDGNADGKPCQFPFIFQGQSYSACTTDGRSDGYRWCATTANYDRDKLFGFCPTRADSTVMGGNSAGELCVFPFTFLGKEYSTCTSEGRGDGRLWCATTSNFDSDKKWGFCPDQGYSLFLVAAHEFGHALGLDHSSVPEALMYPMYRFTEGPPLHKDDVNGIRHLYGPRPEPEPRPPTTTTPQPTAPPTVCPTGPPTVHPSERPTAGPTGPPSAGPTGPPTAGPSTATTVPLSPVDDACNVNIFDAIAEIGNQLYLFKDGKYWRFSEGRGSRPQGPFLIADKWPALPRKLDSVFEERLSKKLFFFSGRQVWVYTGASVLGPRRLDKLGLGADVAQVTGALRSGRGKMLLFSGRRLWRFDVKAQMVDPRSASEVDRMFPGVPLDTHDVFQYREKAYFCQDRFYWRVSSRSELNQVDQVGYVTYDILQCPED
T1 sequence (P07339 65-412): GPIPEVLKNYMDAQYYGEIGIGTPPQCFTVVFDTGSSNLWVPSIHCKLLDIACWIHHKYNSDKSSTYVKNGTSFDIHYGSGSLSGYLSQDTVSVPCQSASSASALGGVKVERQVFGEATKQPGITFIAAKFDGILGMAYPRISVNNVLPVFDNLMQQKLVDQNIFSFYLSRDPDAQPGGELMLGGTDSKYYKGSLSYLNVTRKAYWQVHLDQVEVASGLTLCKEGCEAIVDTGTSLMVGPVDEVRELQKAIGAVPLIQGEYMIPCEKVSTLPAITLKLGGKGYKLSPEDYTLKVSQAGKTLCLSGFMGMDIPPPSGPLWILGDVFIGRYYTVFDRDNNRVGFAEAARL
T3 sequence (P07711 114-333): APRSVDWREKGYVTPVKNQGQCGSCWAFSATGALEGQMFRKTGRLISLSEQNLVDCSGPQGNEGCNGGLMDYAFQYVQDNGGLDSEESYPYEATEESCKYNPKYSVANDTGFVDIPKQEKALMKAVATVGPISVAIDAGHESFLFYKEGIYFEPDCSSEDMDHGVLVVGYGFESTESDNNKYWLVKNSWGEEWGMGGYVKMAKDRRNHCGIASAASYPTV

In the case of “VPF-KRRPIYPALAK-lonidamine [NanoTAC, supramolecular self-assembly of drug conjugates: HK2-targeting PROTAC, cathepsin B-cleavable peptide KRR and photosensitizer verteporfin]”, the “ROS quantum yield (Φ)” value in series [1] is reported as “≈ 0.7823”. Further, in the series on rechallenged 4T1 TNBC, the “serum IFN-γ, fold of NanoTAC (+L)-treated CR mice over naive mice” value stood at 1.33 fold; the “serum IL-6, fold of NanoTAC (+L)-treated CR mice over naive mice” value came to 1.32 fold; the “serum TNF-α, fold of NanoTAC (+L)-treated CR mice over naive mice” value is on record as 1.4 fold. Moreover, the “survival of TNBC mice” value in series [2] (+L, n = 5, log-rank test) is given as “significantly prolonged survival”. For the same compound, the “complete regression (CR), mice with CR / mice in group” value in [2] (+L (200 mW, 15 min)) was 3/5. In addition, the “complete regression (CR), mice with CR / mice in group” value in [2] (−L) is 0/5. Also, the “cleavage by Cat-D” value at Cat-D is “no cleavage behavior”. For the same compound, the “cleavage by CASP3” value at caspase-3 (CASP3) was “no cleavage behavior”. Moreover, at Cat-L, the “cleavage by Cat-L” value is “no cleavage behavior”. Further, in the series with 4T1 cells [3], the “migratory and invasive phenotypes” value is “reduced migratory and invasive phenotypes”. Further, the “cleavage in presence of Cat-B with irreversible cysteine protease inhibitor” value on Cat-B (Cat-B with Z-FA-FMK, LC/MS) is recorded as “no detectable cleavage”. The “catalytic efficiency (kcat/KM)” value with Cat-B (NanoTAC 5-80 μM, 5 μg Cat-B, HPLC) is on record as 27,898 M^−1S^−1. For the same compound, the “time for conversion into PROTAC and lysine-conjugated VPF (K-VPF) with Cat-B” value in the series with Cat-B (LC/MS) is no more than 1 h. Moreover, the “intracellular HK2 level after treatment” value at HK2 (4T1 cells, 1 μM, 12 h, anti-HK2 staining, CLSM) is recorded as “significantly decreased intracellular HK2 levels”. On HK2, the “time-dependent HK2 expression after washout” value is given as “sustained degradation of the target protein”. In [4], the “intratumoral Treg population, NanoTAC (+L) relative to NanoTAC (−L)” value is listed as 72.01% and the “intratumoral Treg population, NanoTAC (+L) relative to VPF (+L)” value is on record as 44.81%. Further, at Cat-E, the “cleavage by Cat-E” value is listed as “no cleavage behavior”. The “cleavage by MMP-9” value in series [5] is “no cleavage behavior”. In addition, the “reduction of ROS production under hypoxia compared with normoxia” value in the series with 4T1 cells [6] was determined as 36.1%.

Regarding verteporfin [VPF, reference compound], in series [2] (+L (200 mW, 15 min)), the “complete regression (CR), mice with CR / mice in group” value is listed as 0/5. Moreover, the “ROS quantum yield (Φ)” value in series [7] is on record as 0.78. Further, the “reduction of ROS production under hypoxia compared with normoxia” value in the series on 4T1 cells [6] is 79.1%.

In the case of `O=C(O)c1nn(Cc2ccc(Cl)cc2Cl)c2ccccc12` [lonidamine, reference compound], on HK2, the “time-dependent HK2 expression after washout” value was “initial reduction in the intracellular HK2 level followed by eventual regeneration”.
